Experimental data taken from PubChem BioAssay AID1963832 (Molecular Pharmacology Branch, DTP, NCI, 2024).

Tested on: 885724-159-R-J1-PDC complex spheroid viability
Assay: Anticancer human tumor 885724-159-R-J1-PDC patient-derived pancreatic adenocarcinoma cell line growth inhibition [POLQ]
Conditions: for IC50: curve of first compound; for viability, T/C: stronger effect = lower value
In short: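 Three-cell-type spheroids modelling solid tumor plus stroma served as the readout system; POL inhibitors were tested individually and in combination, concentration ranges set by clinical Cmax where known.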

[1] = second compound 0.0316 µM, first compound 0.0316 µM
[2] = second compound 0.0316 µM, first compound 0.1 µM
[3] = second compound 0.0316 µM, first compound 0.316 µM
[4] = second compound 0.0316 µM, first compound 1 µM
[5] = second compound 0.0316 µM, first compound 3.16 µM
[6] = second compound 0.0316 µM, first compound 10 µM
[7] = second compound 0.1 µM, first compound 0.0316 µM
[8] = second compound 0.1 µM, first compound 0.1 µM
[9] = second compound 0.1 µM, first compound 0.316 µM
[10] = second compound 0.1 µM, first compound 1 µM
[11] = second compound 0.1 µM, first compound 3.16 µM
[12] = second compound 0.1 µM, first compound 10 µM
[13] = second compound 0.316 µM, first compound 0.0316 µM
[14] = second compound 0.316 µM, first compound 0.1 µM
[15] = second compound 0.316 µM, first compound 0.316 µM
[16] = second compound 0.316 µM, first compound 1 µM
[17] = second compound 0.316 µM, first compound 3.16 µM
[18] = second compound 0.316 µM, first compound 10 µM
[19] = second compound 1 µM, first compound 0.0316 µM
[20] = second compound 1 µM, first compound 0.1 µM
[21] = second compound 1 µM, first compound 0.316 µM
[22] = second compound 1 µM, first compound 1 µM
[23] = second compound 1 µM, first compound 3.16 µM
[24] = second compound 1 µM, first compound 10 µM
[25] = second compound 3.16 µM, first compound 0.0316 µM
[26] = second compound 3.16 µM, first compound 0.1 µM
[27] = second compound 3.16 µM, first compound 0.316 µM
[28] = second compound 3.16 µM, first compound 1 µM
[29] = second compound 3.16 µM, first compound 3.16 µM
[30] = second compound 3.16 µM, first compound 10 µM
[31] = second compound 10 µM, first compound 0.0316 µM
[32] = second compound 10 µM, first compound 0.1 µM
[33] = second compound 10 µM, first compound 0.316 µM
[34] = second compound 10 µM, first compound 1 µM
[35] = second compound 10 µM, first compound 3.16 µM
[36] = second compound 10 µM, first compound 10 µM
[37] = second compound 0.0316 µM, first compound 0.00316 µM
[38] = second compound 0.0316 µM, first compound 0.01 µM
[39] = second compound 0.1 µM, first compound 0.00316 µM
[40] = second compound 0.1 µM, first compound 0.01 µM
[41] = second compound 0.316 µM, first compound 0.00316 µM
[42] = second compound 0.316 µM, first compound 0.01 µM
[43] = second compound 1 µM, first compound 0.00316 µM
[44] = second compound 1 µM, first compound 0.01 µM
[45] = second compound 3.16 µM, first compound 0.00316 µM
[46] = second compound 3.16 µM, first compound 0.01 µM
[47] = second compound 10 µM, first compound 0.00316 µM
[48] = second compound 10 µM, first compound 0.01 µM
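Further: spheroids exposed to compounds for 7 days.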

Compound: C=CC(=O)N1CCN(c2nc(=O)n(-c3c(C)ccnc3C(C)C)c3nc(-c4c(O)cccc4F)c(F)cc23)C(C)C1 (stereo not drawn) + Cc1cccc(N(C)C(=O)C2C(O)CCN2c2nc(C)cc(C(F)(F)F)c2C#N)c1
- IC50 (second compound 0.0316 µM): > 10000 nM
- IC50 (second compound 0.1 µM): > 10000 nM
- IC50 (second compound 0.316 µM): > 10000 nM
- IC50 (second compound 1 µM): > 10000 nM
- IC50 (second compound 3.16 µM): > 10000 nM
- IC50 (second compound 10 µM): > 10000 nM
- viability, T/C [1]: 105%
- viability, T/C [2]: 90.7%
- viability, T/C [3]: 99.5%
- viability, T/C [4]: 97.8%
- viability, T/C [5]: 104%
- viability, T/C [6]: 96.4%
- viability, T/C [7]: 95.4%
- viability, T/C [8]: 86.6%
- viability, T/C [9]: 99.1%
- viability, T/C [10]: 96.8%
- viability, T/C [11]: 108%
- viability, T/C [12]: 88.7%
- viability, T/C [13]: 98.6%
- viability, T/C [14]: 95%
- viability, T/C [15]: 91.3%
- viability, T/C [16]: 105%
- viability, T/C [17]: 105%
- viability, T/C [18]: 88%
- viability, T/C [19]: 94.8%
- viability, T/C [20]: 92.1%
- viability, T/C [21]: 95.3%
- viability, T/C [22]: 108%
- viability, T/C [23]: 103%
- viability, T/C [24]: 92.3%
- viability, T/C [25]: 98.5%
- viability, T/C [26]: 94.7%
- viability, T/C [27]: 98.8%
- viability, T/C [28]: 99.4%
- viability, T/C [29]: 110%
- viability, T/C [30]: 88.7%
- viability, T/C [31]: 95.4%
- viability, T/C [32]: 91.8%
- viability, T/C [33]: 96.1%
- viability, T/C [34]: 109%
- viability, T/C [35]: 107%
- viability, T/C [36]: 93.2%

Compound: CC1COCCN1c1cc(-c2ccnn2C)c2ccnc(-c3ccn[nH]3)c2n1 (stereo not drawn) + Cc1cccc(N(C)C(=O)C2C(O)CCN2c2nc(C)cc(C(F)(F)F)c2C#N)c1
- IC50 (second compound 0.0316 µM): 350 nM
- IC50 (second compound 0.1 µM): 631 nM
- IC50 (second compound 0.316 µM): 364 nM
- IC50 (second compound 1 µM): 467 nM
- IC50 (second compound 3.16 µM): 576 nM
- IC50 (second compound 10 µM): 441 nM
- viability, T/C [1]: 85.6%
- viability, T/C [2]: 61.2%
- viability, T/C [3]: 52.3%
- viability, T/C [4]: 42.6%
- viability, T/C [5]: 45.5%
- viability, T/C [6]: 39%
- viability, T/C [7]: 87%
- viability, T/C [8]: 66.2%
- viability, T/C [9]: 54.2%
- viability, T/C [10]: 47.5%
- viability, T/C [11]: 44.7%
- viability, T/C [12]: 36.1%
- viability, T/C [13]: 89.3%
- viability, T/C [14]: 61.5%
- viability, T/C [15]: 51.5%
- viability, T/C [16]: 47.2%
- viability, T/C [17]: 40.6%
- viability, T/C [18]: 41.4%
- viability, T/C [19]: 82.9%
- viability, T/C [20]: 65.1%
- viability, T/C [21]: 50.2%
- viability, T/C [22]: 47.4%
- viability, T/C [23]: 41.9%
- viability, T/C [24]: 38.3%
- viability, T/C [25]: 77.8%
- viability, T/C [26]: 63.2%
- viability, T/C [27]: 51.9%
- viability, T/C [28]: 47%
- viability, T/C [29]: 46.5%
- viability, T/C [30]: 37.8%
- viability, T/C [31]: 86%
- viability, T/C [32]: 58.5%
- viability, T/C [33]: 50.4%
- viability, T/C [34]: 53.3%
- viability, T/C [35]: 49.6%
- viability, T/C [36]: 40.2%

Compound: COc1cccc(OCCCN)c1-c1cc(Nc2cnc(C#N)cn2)n[nH]1 + Cc1cccc(N(C)C(=O)C2C(O)CCN2c2nc(C)cc(C(F)(F)F)c2C#N)c1
- IC50 (second compound 0.0316 µM): 10.6 nM
- IC50 (second compound 0.1 µM): 20.7 nM
- IC50 (second compound 0.316 µM): 10.6 nM
- IC50 (second compound 1 µM): 9.08 nM
- IC50 (second compound 3.16 µM): 8.91 nM
- IC50 (second compound 10 µM): 9.02 nM
- viability, T/C [37]: 71.8%
- viability, T/C [38]: 51.3%
- viability, T/C [1]: 42.9%
- viability, T/C [2]: 44.4%
- viability, T/C [3]: 46.4%
- viability, T/C [4]: 45.6%
- viability, T/C [39]: 78.5%
- viability, T/C [40]: 57.1%
- viability, T/C [7]: 42.5%
- viability, T/C [8]: 46.8%
- viability, T/C [9]: 45.5%
- viability, T/C [10]: 48.6%
- viability, T/C [41]: 71.9%
- viability, T/C [42]: 52.2%
- viability, T/C [13]: 40.9%
- viability, T/C [14]: 42.7%
- viability, T/C [15]: 41.8%
- viability, T/C [16]: 48.7%
- viability, T/C [43]: 73%
- viability, T/C [44]: 48.5%
- viability, T/C [19]: 41.9%
- viability, T/C [20]: 44%
- viability, T/C [21]: 41.6%
- viability, T/C [22]: 46.8%
- viability, T/C [45]: 71.8%
- viability, T/C [46]: 46.6%
- viability, T/C [25]: 47.5%
- viability, T/C [26]: 48%
- viability, T/C [27]: 47.8%
- viability, T/C [28]: 47.6%
- viability, T/C [47]: 76.6%
- viability, T/C [48]: 47.4%
- viability, T/C [31]: 45.4%
- viability, T/C [32]: 44.3%
- viability, T/C [33]: 48.2%
- viability, T/C [34]: 48.2%

Compound: CC[C@@]1(O)C(=O)OCc2c1cc1n(c2=O)Cc2cc3c(CN(C)C)c(O)ccc3nc2-1 + Nc1ccc(C#CCN(C(=O)Cc2ncc(C(F)(F)F)cc2C(F)(F)F)c2ccc(F)cc2)nn1
- IC50 (second compound 0.0316 µM): > 100 nM
- IC50 (second compound 0.1 µM): > 100 nM
- IC50 (second compound 0.316 µM): > 100 nM
- IC50 (second compound 1 µM): > 100 nM
- IC50 (second compound 3.16 µM): > 100 nM
- IC50 (second compound 10 µM): > 100 nM
- viability, T/C (second compound 0.0316 µM, first compound 0.000316 µM): 91.3%
- viability, T/C (second compound 0.0316 µM, first compound 0.001 µM): 89.7%
- viability, T/C [37]: 94.6%
- viability, T/C [38]: 83.6%
- viability, T/C [1]: 77.8%
- viability, T/C [2]: 63.3%
- viability, T/C (second compound 0.1 µM, first compound 0.000316 µM): 108%
- viability, T/C (second compound 0.1 µM, first compound 0.001 µM): 93%
- viability, T/C [39]: 89.4%
- viability, T/C [40]: 82%
- viability, T/C [7]: 72.2%
- viability, T/C [8]: 63%
- viability, T/C (second compound 0.316 µM, first compound 0.000316 µM): 96.7%
- viability, T/C (second compound 0.316 µM, first compound 0.001 µM): 101%
- viability, T/C [41]: 93%
- viability, T/C [42]: 94.2%
- viability, T/C [13]: 77%
- viability, T/C [14]: 58.9%
- viability, T/C (second compound 1 µM, first compound 0.000316 µM): 100%
- viability, T/C (second compound 1 µM, first compound 0.001 µM): 91.7%
- viability, T/C [43]: 85.2%
- viability, T/C [44]: 85.3%
- viability, T/C [19]: 84.3%
- viability, T/C [20]: 54.7%
- viability, T/C (second compound 3.16 µM, first compound 0.000316 µM): 98%
- viability, T/C (second compound 3.16 µM, first compound 0.001 µM): 102%
- viability, T/C [45]: 98.5%
- viability, T/C [46]: 83.2%
- viability, T/C [25]: 85.1%
- viability, T/C [26]: 59%
- viability, T/C (second compound 10 µM, first compound 0.000316 µM): 98.5%
- viability, T/C (second compound 10 µM, first compound 0.001 µM): 87.2%
- viability, T/C [47]: 98.8%
- viability, T/C [48]: 98.8%
- viability, T/C [31]: 81.1%
- viability, T/C [32]: 63%
